How the values were obtained:
Bd3459 [1] = molecular target: T1, Bd3459 (Bdellovibrio bacteriovorus, UniProt Q6MHT0, A37M/S70A); experiment: fluorescent labelling, SDS-PAGE, Typhoon fluorescence scan; format: binding; conditions: active-site serine mutant; labelled compound; 1.25 ug/ml Bocillin-FL, 75 ug/ml protein, 20 mM sodium phosphate pH 4.8, 10 min, 37 °C
T1 construct: E. coli BL21(DE3), modified pET41 (GST removed), Hi-Trap His column; about 46 kDa; likely monomer

Bd3459 [2] = molecular target: T2, Bd3459 (Bdellovibrio bacteriovorus, UniProt Q6MHT0, A37M); experiment: as above; format: binding; conditions: covalent; labelled compound; 1.25 ug/ml Bocillin-FL, 75 ug/ml protein, 20 mM sodium phosphate pH 4.8, 10 min, 37 °C
T2 construct: E. coli BL21(DE3), modified pET41 (GST removed), Hi-Trap His column; about 46 kDa; likely monomer
T2 sequence (Q6MHT0 entry or part of it A37M): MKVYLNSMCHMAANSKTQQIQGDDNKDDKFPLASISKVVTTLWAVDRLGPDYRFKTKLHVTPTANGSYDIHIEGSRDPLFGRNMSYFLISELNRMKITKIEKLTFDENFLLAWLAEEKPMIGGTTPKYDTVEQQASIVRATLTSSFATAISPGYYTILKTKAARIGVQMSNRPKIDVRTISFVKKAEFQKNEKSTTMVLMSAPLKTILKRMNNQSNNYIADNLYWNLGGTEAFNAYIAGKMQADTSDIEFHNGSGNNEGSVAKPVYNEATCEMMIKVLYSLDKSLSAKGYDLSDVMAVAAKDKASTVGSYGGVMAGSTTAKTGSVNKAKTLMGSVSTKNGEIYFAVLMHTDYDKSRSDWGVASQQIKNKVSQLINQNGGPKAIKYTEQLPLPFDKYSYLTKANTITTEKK

Bd3459 [3] = molecular target: T2, Bd3459; experiment: HPLC muropeptide analysis of digested pentapeptide-rich peptidoglycan; also competition with Bocillin-FL labelling; format: biochemical; conditions: inhibitor pre-incubated at 0.4 mg/ml, 30 min, 37 °C; E. coli CS703-1 peptidoglycan, 20 mM sodium phosphate pH 4.8; labelling assay 2.5 ug/ml ampicillin

T1 sequence (Q6MHT0 entry or part of it A37M/S70A): as the sequence (Q6MHT0 entry or part of it A37M) above, with S34A counted along it

Row | Compound | fluorescent labelling, SDS-PAGE, Typhoon fluorescence scan (Bd3459 [1]) | fluorescent labelling, SDS-PAGE, Typhoon fluorescence scan (Bd3459 [2]) | HPLC muropeptide analysis of digested pentapeptide-rich peptidoglycan; also comp (Bd3459 [3])
1 | Cc1cc(C)n2c1C=C1C=CC(CCC(=O)Nc3ccc(OCC(=O)N[C@@H]4C(=O)N5[C@@H]4SC(C)(C)[C@@H]5C(=O)O)cc3)=[N+]1[B-]2(F)F [Bocillin-FL] | Bd3459 (S70A) bound significantly less Bocillin-FL | Bd3459 covalently bound the fluorescent beta-lactam Bocillin-FL | –
2 | CC1(C)S[C@@H]2[C@H](NC(=O)[C@H](N)c3ccccc3)C(=O)N2[C@H]1C(=O)O [ampicillin] | – | – | The addition of the beta-lactam ampicillin inhibited the WT enzyme

From paper PMC3276566, “Specialized Peptidoglycan Hydrolases Sculpt the Intra-bacterial Niche of Predatory Bdellovibrio and Increase Population Fitness” (PLoS Pathogens, 2012)
